Measured values taken from US20100112042A1, “Processes and Compositions for Liposomal and Efficient Delivery of Gene Silencing Therapeutics” (MDRNA, INC., priority 2008, published 2010).
Where no end group is shown, it is not given here.

Columns and labels:
dsRNA = test: SYBR-GOLD Dye Binding Assay (peptide binding to RNAi-inducing agent); settings: FIG. 6; dsRNA 10 μg/ml, 10 mM hepes/5% dextrose pH 7.4
Method: The relative strength of the binding of a cationic peptide to an RNAi-inducing agent was measured with a dye binding assay.
The RNAi-inducing agent was prepared at 7.8 μl in 10 ml to make a 20 μg/ml stock, then 75 μl/well. A SYBR gold dilution was prepared at 3.75 μl in 15 ml for 1:4000 dilution for a 2.5× stock.
Peptides were dissolved in Hepes buffer with 5% dextrose and diluted. Peptides were further diluted so that 75 μl could be added to each well resulting in the desired N:P (ranging from 0-4). Peptides were assumed to have a purity of 50%, but actual peptide amount was unknown.
A SYBR-GOLD Dye Binding Assay was performed. A 96-well plate assay with sample volume of 150 μl per well. Final dsRNA concentration was 10 μg/ml in 10 mM hepes/5% dextrose at pH 7.4. Peptides were diluted into different working solutions such that equal volumes were added to reach different N/P ratios. For the addition procedure, dsRNA was first added (75 μl of 20 μg/ml), followed by […] of 2.5×SYBR Gold. Peptide ([…]) was then added to compete off the SYBR dye. Total volume was […]. Fluorescence was corrected from background of dye alone in buffer. SYBR-Gold ex/em was 495 nm/537 nm, read on Molecular Devices plate reader.

Cyclophilin B (PPIB) = test: In vitro assay for PPIB gene expression knockdown in A549 cells; format: cell-based, human; settings: for Knockdown (%) (vs dsRNA control): A549 cells, dsRNA DC4377 100 nM; for Knockdown (%) vs control / Knockdown (%) vs untransf: dsRNA DX4221 100 nM
Method: Cyclophilin B (PPIB) gene knockdown measurements can be used as a primary activity-based in vitro assay for interfering RNA delivery formulations. Typically, the measurements were made as described below, with minor variations.
Cyclophilin B (PPIB) gene expression knockdown was measured in A549 human alveolar basal epithelial cells. For PPIB gene knockdown measurements, A549 cells were transfected with an interfering RNA formulation, total RNA prepared 24 hours after transfection, and PPIB mRNA assayed by RT-PCR. QRT-PCR of 36B4 (acidic ribosomal phosphoprotein PO) mRNA expression was performed for normalization.
A549 cells were seeded at 7,500 cells/well (96-well) and incubated overnight in medium. Confluency was about 50% at the time of transfection. Transfection complex was prepared by adding an interfering RNA to medium (OptiMEM™) and vortexing, separately adding a delivery formulation to medium (OptiMEM™) and vortexing, and finally mixing the interfering RNA in medium with the delivery formulation in medium and incubating 20 minutes at room temperature to make the transfection complex. The medium for incubated cells was replaced with fresh OptiMEM™ and transfection complex was added to each well. Cells were incubated for 5 hrs at 37° C. and 5% CO2, then complete medium was added (to a final fetal bovine serum concentration 10%) and incubation continued until 24 hours post-transfection.
For PPIB gene knockdown cells were lysed and RNA prepared (Invisorb RNA Cell HTS 96-Kit/C, Invitek, Berlin, or RNeasy 96 Kit, Qiagen). Quantitative RT-PCR was performed using One-Step qRT-PCR kit (Invitrogen) on a DNA Engine Opticon2 thermal cycler (BioRad).
Primers used for PPIB were: […]

[1] = endosomolytic agent PN3033, binary N/P 5, final N/P 2.5
[2] = endosomolytic agent none, binary N/P 5
[3] = endosomolytic agent PN3033, binary N/P 4, final N/P 2.5
[4] = endosomolytic agent PN3033, binary N/P 4, final N/P 3.5
[5] = endosomolytic agent PN3033, binary N/P 5, final N/P 3.5
[6] = endosomolytic agent PN3033, binary N/P 5, final N/P 4.5

RRRRRCCRRRRR (cysteine pairing not given here; also: dimer) [PN3499, dimer peptide containing a total of 10 arginines]
binding to dsRNA (ability to displace SYBR-Gold dye) (dsRNA): strongest binding

WWHHKKRRCCRRKKHHWW [PN4110, triggered release peptide]
Knockdown (%) (vs dsRNA control) (Cyclophilin B (PPIB); [1]): 65%
Knockdown (%) (vs dsRNA control) (Cyclophilin B (PPIB); endosomolytic agent PN3033, binary N/P 10, final N/P 5): 63%
Knockdown (%) (vs dsRNA control) (Cyclophilin B (PPIB); [2]): 0%
Knockdown (%) vs control (Cyclophilin B (PPIB); [3]): 50%
Knockdown (%) vs untransf (Cyclophilin B (PPIB); [3]): 55%
Knockdown (%) vs control (Cyclophilin B (PPIB); [4]): 41%
Knockdown (%) vs untransf (Cyclophilin B (PPIB); [4]): 36%
Knockdown (%) vs control (Cyclophilin B (PPIB); [1]): 72%
Knockdown (%) vs untransf (Cyclophilin B (PPIB); [1]): 70%
Knockdown (%) vs control (Cyclophilin B (PPIB); [5]): 74%
Knockdown (%) vs untransf (Cyclophilin B (PPIB); [5]): 72%
Knockdown (%) vs control (Cyclophilin B (PPIB); [6]): 36%
Knockdown (%) vs untransf (Cyclophilin B (PPIB); [6]): 40%
Knockdown (%) vs control (Cyclophilin B (PPIB); [2]): 14%
Knockdown (%) vs untransf (Cyclophilin B (PPIB); [2]): 11%
